Data as given in paper PMC12931196, “Vm–MSI: a Vancomycin–Antimicrobial Peptide Conjugate Combating Resistant Bacteria and Broadening the Antimicrobial Spectrum” (Advanced Science, 2025).
Where two headings read alike, the source gives them in different places. Ends that are not written are not given here.

Key:
[1] = system: S. aureus 15192; conditions: 15192, 18 h
[2] = system: VRSA 52; conditions: VRSA 52; MH broth, 37 °C, 18 h, OD600
[3] = system: S. aureus ATCC29213; conditions: ATCC29213, 18 h
[4] = system: S. typhimurium ATCC14028; conditions: ATCC14028, 18 h
[5] = system: A. baumannii ATCC19606; conditions: ATCC19606, 18 h
[6] = system: P. aeruginosa ATCC27853; conditions: ATCC27853, 18 h
[7] = system: S. aureus CMCC26003; conditions: CMCC26003, 18 h
[8] = system: MRSA ATCC43300; conditions: ATCC43300, 18 h
[9] = system: E. coli ATCC25922; conditions: ATCC25922, 18 h
[10] = system: S. aureus 15772; conditions: 15772, 18 h
[11] = system: E. faecalis ATCC29212; conditions: ATCC29212, 18 h
[12] = system: K. pneumoniae 9883; conditions: 9883, 18 h
[13] = system: 13 bacterial strains; test: GM of MIC from tested bacterial strains (Table S2); type: cell-based; conditions: 13 strains of Table S2
Procedure: (§1) The 2 fold broth microdilution method was performed following previously established protocols.^[ [65], [66] ^] A total of 29 strains of human pathogenic microorganisms (11 Gram‐positive and 18 Gram‐negative) were included in the assay. Standard strains were maintained in our laboratory, and clinical isolates were obtained from the Fourth Affiliated Hospital of Soochow University. […] Gradient dilutions of the drugs (vancomycin, AMPs, and vancomycin‐AMP conjugates) were prepared in 96‐well plates, with 50 µL of each drug solution added per well. For the vancomycin and AMP mixture, 25 µL of vancomycin was combined with 25 µL of AMP at the corresponding monomer gradient concentration, resulting in a total volume of 50 µL. […] Following incubation, bacterial growth was assessed by measuring absorbance at 600 nm. The MIC was defined as the lowest concentration at which no bacterial growth was detected.

[14] = system: 29 bacterial strains (11 Gram‐positive, 18 Gram‐negative); test: GM of the MICs across the 29 bacterial strains; type: cell-based; conditions: MIC values exceeding 100 µg mL^−1 defaulted to 100 µg mL^−1
Procedure: as §1

[15] = system: MDR K. pneumoniae 3; conditions: MH broth, 37 °C, 18 h, OD600
[16] = system: P. aeruginosa 52097; test: MIC, 2 fold broth microdilution; type: cell-based; conditions: MH broth, 37 °C, 18 h, OD600
Procedure: as §1

[17] = system: P. aeruginosa 60357; test: MIC, 2 fold broth microdilution; type: cell-based; conditions: MH broth, 37 °C, 18 h, OD600
Procedure: as §1

[18] = system: S. flexneri CMCC51571; test: MIC, 2 fold broth microdilution; type: cell-based; conditions: MH broth, 37 °C, 18 h, OD600
Procedure: as §1

[19] = system: S. flexneri ATCC12022; test: MIC, 2 fold broth microdilution; type: cell-based; conditions: MH broth, 37 °C, 18 h, OD600
Procedure: as §1

[20] = system: P. aeruginosa CMCC10104; test: MIC, 2 fold broth microdilution; type: cell-based; conditions: MH broth, 37 °C, 18 h, OD600
Procedure: as §1

[21] = system: V. parahemolyticus ATCC17802; test: MIC, 2 fold broth microdilution; type: cell-based; conditions: MH broth, 37 °C, 18 h, OD600
Procedure: as §1

[22] = system: B. cereus CMCC63301; test: MIC, 2 fold broth microdilution; type: cell-based; conditions: MH broth, 37 °C, 18 h, OD600
Procedure: as §1

[23] = system: S. typhimurium CICC21483; test: MIC, 2 fold broth microdilution; type: cell-based; conditions: MH broth, 37 °C, 18 h, OD600
Procedure: as §1

[24] = system: MDR K. pneumoniae 4; conditions: MH broth, 37 °C, 18 h, OD600
[25] = system: MDR P. aeruginosa 5
[26] = system: E. coli CMCC44102
[27] = system: VRSA 11; conditions: 11, 18 h
[28] = system: VRSA 52 biofilms; conditions: 8 µM, 4 h, SYTO9/PI CLSM
[29] = system: MDR A. baumannii 1; conditions: MH broth, 37 °C, 18 h, OD600
[30] = system: C. perfringens ATCC13124; conditions: MH broth, 37 °C, 18 h, OD600
[31] = system: E. coli ATCC25922; test: Live/dead bacteria staining (PI/SYTO9, CLSM); type: cell-based; conditions: 4 µM, 1 h
[32] = system: E. faecalis 2
[33] = system: MDR K. pneumoniae 2; conditions: MH broth, 37 °C, 18 h, OD600
[34] = system: E. coli ATCC25922 biofilms; conditions: 8 µM, 4 h, SYTO9/PI CLSM
[35] = system: S. aureus CMCC26003 biofilm; test: Biofilm inhibition, crystal violet; type: cell-based; conditions: 4 µM, 48 h, OD595
Procedure: (§2) The mixture was incubated in a 96‐well plate for 48 h. Subsequent steps, including washing, fixation, staining, and OD measurement, were performed as described in the biofilm eradication assay.

[36] = system: human erythrocytes; test: Hemolytic activity assay; type: cell-based; conditions: 32 µM; human blood cells, 37 °C, 30 min, A540, 1% Triton X‐100 positive control
[37] = system: VRSA 52 biofilm; type: cell-based, S. aureus; conditions: 4 µM, 48 h, crystal violet, OD595
Procedure: as §2

[38] = system: E. coli ATCC25922 biofilm; type: cell-based; conditions: 4 µM, 48 h, crystal violet, OD595
Procedure: as §2

[39] = system: MDR P. aeruginosa 5 biofilm; type: cell-based; conditions: 4 µM, 48 h, crystal violet, OD595
Procedure: as §2

[40] = system: E. coli ATCC25922; test: Antimicrobial resistance development assay; type: cell-based; conditions: E. coli ATCC25922 cultured at sub‐MIC

| Molecule | MIC [3] | MIC [11] | MIC [12] | GM: Geometric mean of the MICs across the 29 bacterial strains [14] | MIC [15] | MIC [16] | MIC [17] | MIC [18] | MIC [19] | MIC [20] | MIC [21] | MIC [22] | MIC [23] | MIC [24] | killing in the middle layer of the biofilm [28] [%] | MIC [29] | MIC [30] | bacteria killed (mortality) [31] | MIC [33] | further results |
| --- | --- | --- | --- | --- | --- | --- | --- | --- | --- | --- | --- | --- | --- | --- | --- | --- | --- | --- | --- | --- |
| ILRWPWWPWRRK-NH2 [Omiganan] | 18.75(10.54) µg mL^−1 | 75(42.15) µg mL^−1 | >100(56.21) µg mL^−1 | – | – | – | – | – | – | – | – | – | – | – | – | – | – | – | – | MIC [1]: 18.75(10.54) µg mL^−1; MIC [2]: 9.38(5.27) µg mL^−1; MIC [4]: 37.5(21.08) µg mL^−1; MIC [5]: 75(42.15) µg mL^−1; MIC [6]: 18.75(10.54) µg mL^−1; MIC [7]: 2.34(1.32) µg mL^−1; MIC [8]: 37.5(21.08) µg mL^−1; MIC [9]: 18.75(10.54) µg mL^−1; MIC [10]: 18.75(10.54) µg mL^−1; GM: geometric mean of MIC from tested bacterial strains [13]: 36.00 µg/mL |
| GIGKFLKKAKKFGKAFVKILKK-NH2 [MSI‐78] | 15.14(37.5) µM | 30.28(75) µM | 15.14(37.5) µM | 7.67(18.99) µM | 3.79(9.38) µM | 3.79(9.38) µM | 3.79(9.38) µM | 3.79(9.38) µM | 3.79(9.38) µM | 7.57(18.75) µM | 7.57(18.75) µM | 7.57(18.75) µM | 7.57(18.75) µM | 7.57(18.75) µM | 25 | 3.79(9.38) µM | 7.57(18.75) µM | 58% | 7.57(18.75) µM | MIC ([25]; MDR 5, 18 h): 1.89(4.69) µM; MIC ([26]; CMCC44102, 18 h): 15.14(37.5) µM; MIC [27]: 15.14(37.5) µM; MIC ([32]; 2, 18 h): 15.14(37.5) µM |
| CC[C@H](C)[C@H](NC(=O)CNC(=O)[C@@H](N)CSC1CC(=O)N(CC2CCC(C(=O)N(C)[C@H](CC(C)C)C(=O)N[C@H]3C(=O)N[C@@H](CC(N)=O)C(=O)N[C@H]4C(=O)N[C@H]5C(=O)N[C@H](C(=O)N[C@H](C(=O)O)c6cc(O)cc(O)c6-c6cc5ccc6O)[C@H](O)c5ccc(c(Cl)c5)Oc5cc4cc(c5O[C@@H]4O[C@H](CO)[C@@H](O)[C@H](O)[C@H]4O[C@H]4C[C@](C)(N)[C@H](O)[C@H](C)O4)Oc4ccc(cc4Cl)[C@H]3O)CC2)C1=O)C(=O)NCC(=O)N[C@@H](CCCCN)C(=O)N[C@@H](Cc1ccccc1)C(=O)N[C@@H](CC(C)C)C(=O)N[C@@H](CCCCN)C(=O)N[C@@H](CCCCN)C(=O)N[C@@H](C)C(=O)N[C@@H](CCCCN)C(=O)N[C@@H](CCCCN)C(=O)N[C@@H](Cc1ccccc1)C(=O)NCC(=O)N[C@@H](CCCCN)C(=O)N[C@@H](C)C(=O)N[C@@H](Cc1ccccc1)C(=O)N[C@H](C(=O)N[C@@H](CCCCN)C(=O)N[C@H](C(=O)N[C@@H](CC(C)C)C(=O)N[C@@H](CCCCN)C(=O)N[C@@H](CCCCN)C(N)=O)[C@@H](C)CC)C(C)C (stereo partly shown) [Vm‐MSI] | – | – | – | 2.60(11.03) µM | 2.21(9.38) µM | 2.21(9.38) µM | 2.21(9.38) µM | 2.21(9.38) µM | 1.10(4.69) µM | 4.42(18.75) µM | 8.84(37.5) µM | 2.21(9.38) µM | 4.42(18.75) µM | 4.42(18.75) µM | 60 | 1.10(4.69) µM | 2.21(9.38) µM | over 80% | 4.42(18.75) µM | killing at the bottom of the biofilm [34]: more than 75%; MIC ([25]; MDR P. aeruginosa 5, MH broth, 37 °C, 18 h, OD600): 2.21(9.38) µM; MIC ([26]; E. coli CMCC44102, MH broth, 37 °C, 18 h, OD600): 2.21(9.38) µM; killing in the bottom layer of the biofilm [28]: 50%; killing in the surface layer of the biofilm (dead cells) [28]: 95%; biofilm formation inhibited [35]: 80%; hemolysis [36]: 10%; biofilm formation inhibited [37]: 60%; MIC ([32]; E. faecalis 2, MH broth, 37 °C, 18 h, OD600): 4.42(18.75) µM; biofilm formation inhibited [38]: 60%; biofilm formation inhibited [39]: 50% |
| O=C(O)c1cn(C2CC2)c2cc(N3CCNCC3)c(F)cc2c1=O [ciprofloxacin] | – | – | – | – | – | – | – | – | – | – | – | – | – | – | – | – | – | – | – | change of MIC over 20 generations [40]: 64 fold |
